Source: patent US8791102B2, “Acetanilide sphingosine-1-phosphate receptor antagonists” (Exelixis, Inc., priority 2008, dated 2014)

Biological target: T1, human S1P1 receptors (Homo sapiens, UniProt P21453)
T1 construct: host or cells: HEK293
Experiment: S1P1R antagonist assay (fluorescent membrane potential dye, cAMP readout)
Assay type: cell-based
Details: HEK293 cells expressing human S1P1 receptors and CNG channel; 500 nM NECA; S1P1R agonist 10 nM; 90 minutes; read-out: EC50 or IC50 value

T1 sequence (P21453 whole entry): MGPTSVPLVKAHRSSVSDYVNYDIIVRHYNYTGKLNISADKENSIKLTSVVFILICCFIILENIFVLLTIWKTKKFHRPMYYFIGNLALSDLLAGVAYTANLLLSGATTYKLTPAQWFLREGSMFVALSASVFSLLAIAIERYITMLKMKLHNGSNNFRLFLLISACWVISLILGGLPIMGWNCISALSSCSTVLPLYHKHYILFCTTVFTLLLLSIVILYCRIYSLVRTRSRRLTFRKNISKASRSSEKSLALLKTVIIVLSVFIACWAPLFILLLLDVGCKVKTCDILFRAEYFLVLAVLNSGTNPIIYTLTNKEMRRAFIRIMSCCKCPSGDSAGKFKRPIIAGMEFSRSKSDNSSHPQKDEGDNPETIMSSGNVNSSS

`CC(=O)c1ccc(N2CCN(CC(=O)N[C@@H](COCc3ccccc3)C(=O)Nc3ccc(Oc4ccc(F)cc4)cc3)CC2)cc1` [Compound 229, (S)-2-(2-(4-(4-acetylphenyl)piperazin-1-yl)acetamido)-3-(benzyloxy)-N-(4-(4-fluorophenoxy)phenyl)propanamide] and `CC(=O)N1CCN(CC(=O)N[C@@H](COCc2ccccc2)C(=O)Nc2ccc(Oc3ccc(F)cc3)cc2)CC1` [Compound 236, (S)-2-(2-(4-acetylpiperazin-1-yl)acetamido)-3-(benzyloxy)-N-(4-(4-fluorophenoxy)phenyl)propanamide] fall in the same range of IC50: 300 to 1000 nM for the first, 300 to 1000 nM for the second.

`CCN(CC)C(=O)C1CCCN(CC(=O)N[C@@H](COCc2ccccc2)C(=O)Nc2ccc(Oc3ccc(F)cc3)cc2)C1` (stereo partly drawn) [Compound 231, 1-(2-((S)-3-(benzyloxy)-1-(4-(4-fluorophenoxy)phenylamino)-1-oxopropan-2-ylamino)-2-oxoethyl)-N,N-diethylpiperidine-3-carboxamide] and `COC(=O)C1CCN(CC(=O)N[C@@H](COCc2ccccc2)C(=O)Nc2ccc(Oc3ccc(F)cc3)cc2)CC1` [Compound 238, (S)-methyl 1-(2-(3-(benzyloxy)-1-(4-(4-fluorophenoxy)phenylamino)-1-oxopropan-2-ylamino)-2-oxoethyl)piperidine-4-carboxylate] fall in the same range of IC50: 300 to 1000 nM for the first, 300 to 1000 nM for the second.

First: CC/C=C/CC(=O)N[C@@H](COCc1ccccc1)C(=O)Nc1ccc(Oc2ccc(F)cc2)cc1 [Compound 232, (S,E)-N-(3-(benzyloxy)-1-(4-(4-fluorophenoxy)phenylamino)-1-oxopropan-2-yl)hex-3-enamide]
Second: CC(C)CC(=O)N[C@@H](COCc1ccccc1)C(=O)Nc1ccc(Oc2ccc(F)cc2)cc1 [Compound 233, (S)—N-(3-(benzyloxy)-1-(4-(4-fluorophenoxy)phenylamino)-1-oxopropan-2-yl)-3-methylbutanamide]
The IC50 of the first is higher: greater than 1000 nM for the first, 300 to 1000 nM for the second. The second is the more potent here.

`C[C@@H]1CN(CC(=O)N[C@@H](COCc2ccccc2)C(=O)Nc2ccc(Oc3ccc(F)cc3)cc2)C[C@H](C)O1` [Compound 234, (S)-3-(benzyloxy)-2-(2-((2R,6S)-2,6-dimethylmorpholino)acetamido)-N-(4-(4-fluorophenoxy)phenyl)propanamide] and `O=C(CN1CCSC1)N[C@@H](COCc1ccccc1)C(=O)Nc1ccc(Oc2ccc(F)cc2)cc1` [Compound 235, (S)-3-(benzyloxy)-N-(4-(4-fluorophenoxy)phenyl)-2-(2-(thiazolidin-3-yl)acetamido)propanamide] fall in the same range of IC50: 300 to 1000 nM for the first, 300 to 1000 nM for the second.

`O=C(CN1CCN(C(=O)C2CCCO2)CC1)N[C@@H](COCc1ccccc1)C(=O)Nc1ccc(Oc2ccc(F)cc2)cc1` (stereo partly drawn) [Compound 237, (2S)-3-(benzyloxy)-N-(4-(4-fluorophenoxy)phenyl)-2-(2-(4-(tetrahydrofuran-2-carbonyl)piperazin-1-yl)acetamido)propanamide] and `COCCN1CCN(CC(=O)N[C@@H](COCc2ccccc2)C(=O)Nc2ccc(Oc3ccc(F)cc3)cc2)CC1` [Compound 241, (S)-3-(benzyloxy)-N-(4-(4-fluorophenoxy)phenyl)-2-(2-(4-(2-methoxyethyl)piperazin-1-yl)acetamido)propanamide] fall in the same range of IC50: 300 to 1000 nM for the first, 300 to 1000 nM for the second.

`O=C(CN1CCN(Cc2c(F)cccc2Cl)CC1)N[C@@H](COCc1ccccc1)C(=O)Nc1ccc(Oc2ccc(F)cc2)cc1` [Compound 239, (S)-3-(benzyloxy)-2-(2-(4-(2-chloro-6-fluorobenzyl)piperazin-1-yl)acetamido)-N-(4-(4-fluorophenoxy)phenyl)propanamide] and `CCOCCN1CCN(CC(=O)N[C@@H](COCc2ccccc2)C(=O)Nc2ccc(Oc3ccc(F)cc3)cc2)CC1` [Compound 242, (S)-3-(benzyloxy)-N-(4-(4-fluorophenoxy)phenyl)-2-(2-(4-(2-ethoxyethyl)piperazin-1-yl)acetamido)propanamide] cannot be ordered by IC50: no more than 300 nM for the first, 300 to 1000 nM for the second.

`O=C(CN1Cc2ccccc2C1)N[C@@H](COCc1ccccc1)C(=O)Nc1ccc(Oc2ccc(F)cc2)cc1` [Compound 240, (S)-3-(benzyloxy)-N-(4-(4-fluorophenoxy)phenyl)-2-(2-(isoindolin-2-yl)acetamido)propanamide] and `O=C(Cc1ccccc1)N[C@@H](COCc1ccccc1)C(=O)Nc1ccc(Oc2ccc(F)cc2)cc1` [Compound 249, (S)-3-(benzyloxy)-N-(4-(4-fluorophenoxy)phenyl)-2-(2-phenylacetamido)propanamide] fall in the same range of IC50: 300 to 1000 nM for the first, 300 to 1000 nM for the second.

`O=C(Cc1c[nH]cn1)N[C@@H](COCc1ccccc1)C(=O)Nc1cccc(Oc2ccccc2)c1` [Compound 243, (S)-2-(2-(1H-imidazol-4-yl)acetamido)-3-(benzyloxy)-N-(3-phenoxyphenyl)propanamide] and `O=C(Cc1ccccn1)N[C@@H](COCc1ccccc1)C(=O)Nc1ccc(Oc2ccc(F)cc2)cc1` [Compound 246, (S)-3-(benzyloxy)-N-(4-(4-fluorophenoxy)phenyl)-2-(2-(pyridin-2-yl)acetamido)propanamide] cannot be ordered by IC50: no more than 300 nM for the first, no more than 300 nM for the second.

`O=C(Cc1cccc(Br)c1)N[C@@H](COCc1ccccc1)C(=O)Nc1ccc(Oc2ccc(F)cc2)cc1` [Compound 244, (S)-3-(benzyloxy)-2-(2-(3-bromophenyl)acetamido)-N-(4-(4-fluorophenoxy)phenyl)propanamide] and `O=C(Cc1cccnc1)N[C@@H](COCc1ccccc1)C(=O)Nc1ccc(Oc2ccc(F)cc2)cc1` [Compound 247, (S)-3-(benzyloxy)-N-(4-(4-fluorophenoxy)phenyl)-2-(2-(pyridin-3-yl)acetamido)propanamide] cannot be ordered by IC50: 300 to 1000 nM for the first, no more than 300 nM for the second.

`O=C(CC[N+](=O)[O-])N[C@@H](COCc1ccccc1)C(=O)Nc1ccc(Oc2ccc(F)cc2)cc1` [Compound 245, (S)-3-(benzyloxy)-N-(4-(4-fluorophenoxy)phenyl)-2-(3-nitropropanamido)propanamide] and `O=C(Cc1cncnc1)N[C@@H](COCc1ccccc1)C(=O)Nc1ccc(Oc2ccc(F)cc2)cc1` [Compound 250, (S)-3-(benzyloxy)-N-(4-(4-fluorophenoxy)phenyl)-2-(2-(pyrimidin-5-yl)acetamido)propanamide] cannot be ordered by IC50: no more than 300 nM for the first, no more than 300 nM for the second.

`CC(C)=CCC[C@H](C)CC(=O)N[C@@H](COCc1ccccc1)C(=O)Nc1ccc(Oc2ccc(F)cc2)cc1` [Compound 248, (S)—N—((S)-3-(benzyloxy)-1-(4-(4-fluorophenoxy)phenylamino)-1-oxopropan-2-yl)-3,7-dimethyloct-6-enamide] and `Cc1nc(C)n(CC(=O)N[C@@H](COCc2ccccc2)C(=O)Nc2ccc(Oc3ccc(F)cc3)cc2)n1` [Compound 256, (S)-3-(benzyloxy)-2-(2-(3,5-dimethyl-1H-1,2,4-triazol-1-yl)acetamido)-N-(4-(4-fluorophenoxy)phenyl)propanamide] cannot be ordered by IC50: 300 to 1000 nM for the first, no more than 300 nM for the second.

`O=C(Nc1ccc(Oc2ccc(F)cc2)cc1)[C@@H]1C[C@@H](c2ccccc2)CN1C(=O)Cc1cnc[nH]1` [Compound 251, (2S,4S)-1-(2-(1H-imidazol-5-yl)acetyl)-N-(4-(4-fluorophenoxy)phenyl)-4-phenylpyrrolidine-2-carboxamide] and `O=C(N[C@@H]1C[C@@H](C(=O)Nc2ccc(Oc3ccc(F)cc3)cc2)N(C(=O)Cc2cnc[nH]2)C1)OCc1ccccc1` [Compound 253, benzyl (3R,5S)-1-(2-(1H-imidazol-5-yl)acetyl)-5-(4-(4-fluorophenoxy)phenylcarbamoyl)pyrrolidin-3-ylcarbamate] cannot be ordered by IC50: no more than 300 nM for the first, no more than 300 nM for the second.

`O=C(Nc1ccc(Oc2ccc(F)cc2)cc1)[C@@H]1C[C@@H](OCc2ccccc2)CN1C(=O)Cn1cncn1` [Compound 252, (2S,4R)-1-(2-(1H-1,2,4-triazol-1-yl)acetyl)-4-(benzyloxy)-N-(4-(4-fluorophenoxy)phenyl)pyrrolidine-2-carboxamide] and `O=C(Nc1ccc(Oc2ccc(F)cc2)cc1)[C@@H]1C[C@@H](Oc2ccccc2)CN1C(=O)Cn1cncn1` [Compound 259, (2S,4R)-1-(2-(1H-1,2,4-triazol-1-yl)acetyl)-N-(4-(4-fluorophenoxy)phenyl)-4-phenoxypyrrolidine-2-carboxamide] cannot be ordered by IC50: no more than 300 nM for the first, 300 to 1000 nM for the second.

`CC(=O)NCCC[C@H](NC(=O)Cn1cncn1)C(=O)Nc1ccc(Oc2ccc(F)cc2)cc1` [Compound 254, (S)-2-(2-(1H-1,2,4-triazol-1-yl)acetamido)-5-acetamido-N-(4-(4-fluorophenoxy)phenyl)pentanamide] and `CC(C)(C(=O)N[C@@H](COCc1ccccc1)C(=O)Nc1ccc(Oc2ccc(F)cc2)cc1)n1cncn1` [Compound 255, (S)-3-(benzyloxy)-N-(4-(4-fluorophenoxy)phenyl)-2-(2-methyl-2-(1H-1,2,4-triazol-1-yl)propanamido)propanamide] cannot be ordered by IC50: no more than 300 nM for the first, 300 to 1000 nM for the second.

`O=C(Nc1ccc(Oc2ccc(F)cc2)cc1)[C@@H]1CN(C(=O)OCc2ccccc2)CCN1C(=O)Cc1c[nH]cn1` [Compound 257, (S)-benzyl 4-(2-(1H-imidazol-4-yl)acetyl)-3-(4-(4-fluorophenoxy)phenylcarbamoyl)piperazine-1-carboxylate] and `O=C(Nc1ccc(Oc2ccc(F)cc2)cc1)[C@@H]1CN(Cc2ccccc2)CCN1C(=O)Cn1cncn1` [Compound 261, (S)-1-(2-(1H-1,2,4-triazol-1-yl)acetyl)-4-benzyl-N-(4-(4-fluorophenoxy)phenyl)piperazine-2-carboxamide] fall in the same range of IC50: 300 to 1000 nM for the first, 300 to 1000 nM for the second.

`Cc1n[nH]c(C)c1CC(=O)N[C@@H](COCc1ccc(F)cc1)C(=O)Nc1ccc(Oc2ccc(F)cc2)cc1` [Compound 258, (S)-2-(2-(3,5-dimethyl-1H-pyrazol-4-yl)acetamido)-3-(4-fluorobenzyloxy)-N-(4-(4-fluorophenoxy)phenyl)propanamide] and `O=C(Nc1ccc(Oc2ccc(F)cc2)cc1)[C@@H]1C[C@@H](CNCc2ccccc2)CN1C(=O)Cn1cncn1` [Compound 262, (2S,4S)-1-(2-(1H-1,2,4-triazol-1-yl)acetyl)-4-((benzylamino)methyl)-N-(4-(4-fluorophenoxy)phenyl)pyrrolidine-2-carboxamide] cannot be ordered by IC50: no more than 300 nM for the first, 300 to 1000 nM for the second.

For `O=C(Nc1ccc(Oc2ccc(F)cc2)cc1)[C@@H]1C[C@@H](N2Cc3ccccc3C2)CN1C(=O)Cn1cncn1` [Compound 260, (2S,4R)-1-(2-(1H-1,2,4-triazol-1-yl)acetyl)-N-(4-(4-fluorophenoxy)phenyl)-4-(isoindolin-2-yl)pyrrolidine-2-carboxamide], the IC50 was 300 to 1000 nM.
